Assay results: publication PMC8526983 (The Journal of Biological Chemistry, 2021)

Biological target: T1, PfK5ΔL6-MD (Plasmodium falciparum, UniProt O77382, DEL175-269)
T1 construct: gene PF3D7_0317500
Details: read-out: KATP; 1 μM GMPCPP-stabilised Sus scrofa microtubules; 50 mM Tris-HCl pH 8, KCl, 2 mM MgCl2, 2 mM DTT; 26 °C

## Nc1ncnc2c1ncn2[C@@H]1O[C@H](COP(=O)(O)OP(=O)(O)OP(=O)(O)O)[C@@H](O)[C@H]1O [ATP]
  Km: 9.5 µM
